We go through eleven compounds from PubChem BioAssay (NCI).

Test in all cases: NCI tumour cell line growth inhibition, 48 h
In experiment [1] the test system is CAKI-1 renal.
Experiment [2] concerns HCT-116 colon.
In experiment [3] the test system is HCT-15 colon.
Experiment [4] has as its system HT29 colon.
Experiment [5] has as its system MOLT-4 leukemia.
The subject of experiment [6] is OVCAR-3 ovarian.
The test system of experiment [7] is RXF 393 renal.
In experiment [8] the test system is SF-295 CNS.
For experiment [9], the system named is SK-MEL-5 melanoma.
Experiment [10] relates to SNB-19 CNS.
Experiment [11] deals with UO-31 renal.
Experiment [12] has as its system SR leukemia.
Experiment [13] relates to PC-3 prostate.

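Interpolation was linear, between the two tested concentrations surrounding the appropriate level; five concentrations were tested over 48 hours in 96-well plates. At the GI50, growth is halved. The concentration for full growth arrest is given as TGI.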

For `CSc1nc(NC(=O)O)c(N(C(C)=O)C(=O)O)c(=O)n1C`, the TGI in experiment [1], in [2], in [3], in experiment [4], in [5] and in experiment [6] was more than 100 µM throughout. Besides, the TGI in experiment [7], in experiment [8], in experiment [9], in [10] and in [11] was more than 100 µM in each case.
On to `O=C(Nc1ccc(F)cc1)C(=O)C(C1OC(=O)c2ccccc21)[N+](=O)[O-]` (configuration not stated), for which the TGI in experiment [1], in experiment [2], in experiment [3], in experiment [4], in [5] and in experiment [6] was more than 100 µM each time. Besides, the TGI in experiment [7], in experiment [8], in [9], in [10], in [12] and in experiment [11] was more than 100 µM each time.
Consider `CCOC(=O)[C@@H]1ON2O[C@H](OC3CCCC3(c3ccccc3)c3ccccc3)C[C@H]3OC(=O)[C@@H]1C32` (some centres not stated), for which the TGI was 46 µM in [1]; more than 100 µM in experiment [2]; more than 100 µM in experiment [3]; more than 100 µM in experiment [4]; more than 100 µM in experiment [5]; more than 100 µM in [6]. The TGI in experiment [7] is 36.5 µM; in experiment [8] it was more than 100 µM; in [9], more than 100 µM; in experiment [12] it was 99.2 µM; in experiment [11], more than 100 µM.
With `N#Cc1c(Cl)/c(=C/O)c(=O)n2c1nc1ccccc12`, the TGI was more than 100 µM in [1]; more than 100 µM in experiment [2]; more than 100 µM in [3]; more than 100 µM in [4]; 96.5 µM in [5]; 99.5 µM in experiment [6]. Also, the TGI in experiment [13], in [8], in experiment [9], in [10] and in experiment [11] was more than 100 µM in each case.
Turning to `O=C(O)c1ccccc1C(=O)Nn1cnnc1`, the TGI in experiment [2], in experiment [3], in [4], in experiment [5], in experiment [6] and in experiment [13] was more than 100 µM in each case. In addition, the TGI in experiment [7], in experiment [8], in experiment [9], in experiment [10] and in experiment [11] was more than 100 µM in each case.
For the compound `COC(=O)C1=C(\c2ccccc2)c2ccccc2C(=O)N(C2CCCCC2)/C=C\1`, the TGI is 54.6 µM in experiment [1]; 64 µM in experiment [2]; more than 100 µM in experiment [3]; more than 100 µM in experiment [4]; more than 100 µM in experiment [5]; 79.4 µM in experiment [6]. The TGI is more than 100 µM in experiment [13]; more than 100 µM in [8]; 24.3 µM in experiment [9]; more than 100 µM in experiment [10]; more than 100 µM in experiment [11].
As for `COc1cc(C2C3=C(COC3=O)Oc3cc4c(cc32)OCO4)ccc1OC(C)=O` (configuration not stated), the TGI in experiment [1] is 0.904 µM; in experiment [2], more than 100 µM; in experiment [3], more than 100 µM; in experiment [5], 98.7 µM; in experiment [13] it was more than 100 µM; in [7], more than 100 µM. Further, the TGI in experiment [9], in experiment [10] and in experiment [11] was more than 100 µM throughout.
In the case of `CC1=C(C(=O)NCCc2ccccc2)CC(C(=O)NCCc2ccccc2)=C(C)N1`, the TGI in experiment [1], in experiment [2], in experiment [3], in experiment [4], in experiment [5] and in experiment [6] was more than 100 µM each time. In addition, the TGI is more than 100 µM in experiment [13]; more than 100 µM in experiment [7]; more than 100 µM in experiment [8]; 72.5 µM in experiment [10]; more than 100 µM in experiment [11].
In the case of `Cc1ccc(NC(=O)CC(=O)n2nc(-c3ccccc3)c(N=Nc3ccccc3Cl)c2-c2ccccc2)cc1`, the TGI in experiment [1], in experiment [2], in experiment [3], in experiment [4], in experiment [5] and in [6] was more than 100 µM in each case. The TGI in [8], in experiment [9], in [10], in experiment [12] and in [11] was more than 100 µM each time. In addition, the GI50 in experiment [3], in experiment [4], in experiment [5], in experiment [6] and in experiment [11] was more than 100 µM each time.
On to `CCCCCCCCCCCCC(O)C1CCC(C(O)CCCCCCC(O)CCCCCCCC2=CC(C)OC2=O)O1` (configuration not stated), for which the TGI in [1] was 71.9 µM; in experiment [2], more than 100 µM; in [3], more than 100 µM; in [5] it was 33 µM; in experiment [6], 45.7 µM; in experiment [13] it was 90.7 µM. Moreover, the TGI was 83 µM in [7]; more than 100 µM in experiment [8]; 22.2 µM in experiment [9]; more than 100 µM in [10]; 35 µM in experiment [11]. Also, the GI50 in [5] was 3.17 µM; in experiment [8], 17.5 µM; in experiment [11], 17 µM.
Regarding `CCCN1CN(C(C(=O)N[C@@H]2C(=O)N3C(C(=O)O)=C(C)CSC23)c2ccc(O)cc2)CSC1=S` (some centres not stated), the TGI in experiment [1], in [2], in experiment [3], in experiment [4], in experiment [5] and in experiment [6] was more than 100 µM each time. Besides, the TGI in [8], in experiment [9], in experiment [10] and in experiment [11] was more than 100 µM throughout.
